Numbered stars: 1 amine (or outer) side, 2 acyl side, 3 side chain; on linkers, the order of the positions; unused ones are H or OH. Bridge positions count the residues as written; N and C are the ends. Square brackets hold non-standard residues; d marks the D form. Side chains are listed from the residue outwards. Peptide text beside a SMILES is read from it. * marks the point of attachment. C18 diacid = O=C(O)CCCCCCCCCCCCCCCCC(=O)*; γGlu = O=C(O)[C@H](CCC(=O)[*:2])N[*:1]; Dab = NCC[C@H](N)C(=O)O; Aib = CC(C)(N)C(=O)O
Columns and labels:
[1] = molecular target: T1, human calcitonin receptor (hCTR) (Homo sapiens, UniProt P30988); experiment: cAMP production in 1321N1 cells with stable recombinant expression of human calcitonin receptor (hCTR); assay type: cell-based; details: cAMP, 1321N1 cells, assay buffer with 0.1% BSA; read-out: EC50 (pM) hCTR
T1 construct: expressed in transfected cells
T1 sequence (P30988 25-474): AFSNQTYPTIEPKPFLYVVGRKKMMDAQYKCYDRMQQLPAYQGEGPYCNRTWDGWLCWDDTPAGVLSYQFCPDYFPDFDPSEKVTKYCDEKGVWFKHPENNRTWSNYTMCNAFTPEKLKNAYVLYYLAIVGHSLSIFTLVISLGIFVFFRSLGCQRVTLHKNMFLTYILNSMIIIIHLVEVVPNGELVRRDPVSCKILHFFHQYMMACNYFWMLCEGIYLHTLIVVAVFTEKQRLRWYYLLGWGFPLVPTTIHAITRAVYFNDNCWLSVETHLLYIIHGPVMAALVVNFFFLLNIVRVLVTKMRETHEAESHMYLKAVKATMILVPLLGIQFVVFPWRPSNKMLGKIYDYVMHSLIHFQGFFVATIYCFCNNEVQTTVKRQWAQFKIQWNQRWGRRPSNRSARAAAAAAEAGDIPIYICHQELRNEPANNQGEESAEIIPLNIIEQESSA
In short: (§1)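 EC50 values come from 4-parameter logistic fits of HTRF cAMP signal, normalised to maximal calcitonin or amylin effect. Peptides were tested in duplicate for 30 min at RT in IBMX-containing (0.5 mM) BSA/HEPES buffer pH 7.4 on stable 1321N1 (human CTR, AMYR3) or HEK (rat CTR, AMYR3) lines.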

[2] = molecular target: T2, human amylin receptor (calcitonin receptor co-expressed with receptor activity modifying protein, RAMP3) (hAMYR3) (Homo sapiens, UniProt O60896+P30988); experiment: cAMP production in 1321N1 cells with stable recombinant expression of human amylin receptor (hAMYR3); assay type: cell-based; details: for Ratio (selectivity hAMYR vs hCTR, ratio of EC50 values at the two receptors): EC50 hCTR / EC50 hAMYR3; for EC50: cAMP, 1321N1 cells, assay buffer with 0.1% BSA, read-out: EC50 (pM) hAMYR3
T2 construct: expressed in transfected cells
T2 sequence (P30988 25-474): T1 sequence (P30988 25-474)
T2 sequence (O60896 24-148 partner): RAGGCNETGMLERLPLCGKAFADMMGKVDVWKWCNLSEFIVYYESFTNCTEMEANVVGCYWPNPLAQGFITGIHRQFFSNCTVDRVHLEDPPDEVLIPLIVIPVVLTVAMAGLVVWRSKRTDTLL
In short: as §1

Structure (SMILES)	EC50 [1] [pM]	Ratio (selectivity hAMYR vs hCTR, ratio of EC50 values at the two receptors) [2]	EC50 [2] [pM]
CC[C@H](C)[C@H](NC(=O)[C@@H]1CCCN1C(=O)CNC(=O)[C@H](Cc1ccccc1)NC(=O)[C@H](CC(N)=O)NC(=O)[C@H](CC(N)=O)NC(=O)[C@H](CO)NC(=O)[C@H](CO)NC(=O)[C@H](Cc1c[nH]cn1)NC(=O)C(C)(C)NC(=O)[C@H](CC(C)C)NC(=O)[C@H](Cc1ccccc1)NC(=O)[C@H](CC(N)=O)NC(=O)[C@H](C)NC(=O)[C@H](CC(C)C)NC(=O)[C@H](CCCNC(=N)N)NC(=O)[C@H](CCC(N)=O)NC(=O)[C@@H](NC(=O)[C@H](C)NC(=O)[C@@H]1CSSC[C@H](NC(=O)[C@H](CCCCN)NC(=O)[C@@H](N)CCCCNC(=O)CC[C@H](NC(=O)CCCCCCCCCCCCCCCCC(=O)O)C(=O)O)C(=O)N[C@@H](CC(N)=O)C(=O)N[C@@H]([C@@H](C)O)C(=O)N[C@@H](C)C(=O)N[C@@H]([C@@H](C)O)C(=O)N1)[C@@H](C)O)C(=O)N[C@@H](CC(C)C)C(=O)N1CCC[C@H]1C(=O)N1CCC[C@H]1C(=O)N[C@H](C(=O)N[C@@H](CC(N)=O)C(=O)N[C@H](C(=O)NCC(=O)N[C@@H](CO)C(=O)N[C@@H](CCCNC(=N)N)C(=O)N[C@H](C(=O)N[C@@H](Cc1ccc(O)cc1)C(N)=O)[C@@H](C)O)C(C)C)[C@@H](C)O [Peptide 141] (H-K([γGlu-C18 diacid])KCNTATCATQRLANFL[Aib]HSSNNFGPILPPTNVGSRTY-NH2; disulfide 3-8; N-terminus assumed)	3950	9.5	414
CC[C@H](C)[C@H](NC(=O)[C@@H]1CCCN1C(=O)CNC(=O)[C@H](Cc1ccccc1)NC(=O)[C@H](CC(N)=O)NC(=O)C(C)(C)NC(=O)[C@H](CO)NC(=O)[C@H](CO)NC(=O)[C@H](Cc1c[nH]cn1)NC(=O)[C@@H](NC(=O)[C@H](CC(C)C)NC(=O)[C@H](Cc1ccccc1)NC(=O)[C@H](CC(N)=O)NC(=O)[C@H](C)NC(=O)[C@H](CC(C)C)NC(=O)[C@H](CCCNC(=N)N)NC(=O)[C@H](CCC(N)=O)NC(=O)[C@@H](NC(=O)[C@H](C)NC(=O)[C@@H]1CSSC[C@H](NC(=O)[C@H](CCCCN)NC(=O)[C@@H](N)CCCCNC(=O)CC[C@H](NC(=O)CC[C@H](NC(=O)CCCCCCCCCCCCCCCCC(=O)O)C(=O)O)C(=O)O)C(=O)N[C@@H](CC(N)=O)C(=O)N[C@@H]([C@@H](C)O)C(=O)N[C@@H](C)C(=O)N[C@@H]([C@@H](C)O)C(=O)N1)[C@@H](C)O)C(C)C)C(=O)N[C@@H](CC(C)C)C(=O)N1CCC[C@H]1C(=O)N1CCC[C@H]1C(=O)N[C@H](C(=O)N[C@@H](CC(N)=O)C(=O)N[C@H](C(=O)NCC(=O)N[C@@H](CO)C(=O)N[C@@H](CCCNC(=N)N)C(=O)N[C@H](C(=O)N[C@@H](Cc1ccc(O)cc1)C(N)=O)[C@@H](C)O)C(C)C)[C@@H](C)O [Peptide 74, K(γE-γE-C18diacid)K[CNTATC]ATQRLANFLVHSS(Aib)NFGPILPPTNVGSRTY-amide] (H-K([γGlu-γGlu-C18 diacid])KCNTATCATQRLANFLVHSS[Aib]NFGPILPPTNVGSRTY-NH2; disulfide 3-8; N-terminus assumed)	4570	13	356
CC(C)C[C@H](NC(=O)[C@H](CCCNC(=N)N)NC(=O)[C@H](CCC(N)=O)NC(=O)[C@@H](NC(=O)[C@H](C)NC(=O)[C@@H]1CSSC[C@H](NC(=O)[C@H](CCCCN)NC(=O)[C@@H](N)CCCCNC(=O)CC[C@H](NC(=O)CCCCCCCCCCCCCCCCC(=O)O)C(=O)O)C(=O)N[C@@H](CC(N)=O)C(=O)N[C@@H]([C@@H](C)O)C(=O)N[C@@H](C)C(=O)N[C@@H]([C@@H](C)O)C(=O)N1)[C@@H](C)O)C(=O)N[C@@H](C)C(=O)N[C@@H](CC(N)=O)C(=O)N[C@@H](Cc1ccccc1)C(=O)N[C@@H](CC(C)C)C(=O)N[C@H](C(=O)N[C@@H](Cc1c[nH]cn1)C(=O)N[C@@H](CO)C(=O)N[C@@H](CO)C(=O)NC(C)(C)C(=O)N[C@@H](CC(N)=O)C(=O)N[C@@H](Cc1ccccc1)C(=O)NCC(=O)N1CCC[C@H]1C(=O)NC(C)(C)C(=O)N[C@@H](CC(C)C)C(=O)N1CCC[C@H]1C(=O)N1CCC[C@H]1C(=O)N[C@H](C(=O)N[C@@H](CC(N)=O)C(=O)N[C@H](C(=O)NCC(=O)N[C@@H](CO)C(=O)N[C@@H](CC(N)=O)C(=O)N[C@H](C(=O)N[C@@H](Cc1ccc(O)cc1)C(N)=O)[C@@H](C)O)C(C)C)[C@@H](C)O)C(C)C [Peptide 78, K(γE-C18diacid)K[CNTATC]ATQRLANFLVHSS(Aib)NFGP(Aib)LPPTNVGSNTY-amide] (H-K([γGlu-C18 diacid])KCNTATCATQRLANFLVHSS[Aib]NFGP[Aib]LPPTNVGSNTY-NH2; disulfide 3-8; N-terminus assumed)	3150	11	288
CC[C@H](C)[C@H](NC(=O)[C@@H]1CCCN1C(=O)CNC(=O)[C@H](Cc1ccccc1)NC(=O)[C@H](CC(N)=O)NC(=O)C(C)(C)NC(=O)[C@H](CO)NC(=O)[C@H](CO)NC(=O)[C@H](Cc1c[nH]cn1)NC(=O)[C@@H](NC(=O)[C@H](CC(C)C)NC(=O)[C@H](Cc1ccccc1)NC(=O)[C@H](CC(N)=O)NC(=O)[C@H](C)NC(=O)[C@H](CC(C)C)NC(=O)[C@H](CCCNC(=N)N)NC(=O)[C@H](CCC(N)=O)NC(=O)[C@@H](NC(=O)[C@H](C)NC(=O)[C@@H]1CSSC[C@H](NC(=O)[C@@H](N)CCCCNC(=O)CC[C@H](NC(=O)CCCCCCCCCCCCCCCCC(=O)O)C(=O)O)C(=O)N[C@@H](CC(N)=O)C(=O)N[C@@H]([C@@H](C)O)C(=O)N[C@@H](C)C(=O)N[C@@H]([C@@H](C)O)C(=O)N1)[C@@H](C)O)C(C)C)C(=O)N[C@@H](CC(C)C)C(=O)N1CCC[C@@H]1C(=O)N1CCC[C@H]1C(=O)N[C@H](C(=O)N[C@@H](CC(N)=O)C(=O)N[C@H](C(=O)NCC(=O)N[C@@H](CO)C(=O)N[C@@H](CC(N)=O)C(=O)N[C@H](C(=O)N[C@@H](Cc1ccc(O)cc1)C(N)=O)[C@@H](C)O)C(C)C)[C@@H](C)O [Peptide 60, K(γE-C18diacid)[CNTATC]ATQRLANFLVHSS(Aib)NFGPIL(dP)PTNVGSNTY-amide] (H-K([γGlu-C18 diacid])CNTATCATQRLANFLVHSS[Aib]NFGPIL[dP]PTNVGSNTY-NH2; disulfide 2-7; N-terminus assumed)	1030	11	96
CC[C@H](C)[C@H](NC(=O)[C@H](C)NC(=O)[C@@H]1CCCN1C(=O)[C@H](Cc1ccccc1)NC(=O)[C@H](CC(N)=O)NC(=O)C(C)(C)NC(=O)[C@H](CO)NC(=O)[C@H](CO)NC(=O)[C@H](Cc1c[nH]cn1)NC(=O)[C@@H](NC(=O)[C@H](CC(C)C)NC(=O)[C@H](Cc1ccccc1)NC(=O)[C@H](CC(N)=O)NC(=O)[C@H](C)NC(=O)[C@H](CC(C)C)NC(=O)[C@H](CCCNC(=N)N)NC(=O)[C@H](CCC(N)=O)NC(=O)[C@@H](NC(=O)[C@H](C)NC(=O)[C@@H]1CSSC[C@H](NC(=O)[C@@H](N)CCCCNC(=O)CC[C@H](NC(=O)CC[C@H](NC(=O)CCCCCCCCCCCCCCCCC(=O)O)C(=O)O)C(=O)O)C(=O)N[C@@H](CC(N)=O)C(=O)N[C@@H]([C@@H](C)O)C(=O)N[C@@H](C)C(=O)N[C@@H]([C@@H](C)O)C(=O)N1)[C@@H](C)O)C(C)C)C(=O)N[C@@H](CC(C)C)C(=O)N[C@@H](CO)C(=O)N1CCC[C@H]1C(=O)N[C@H](C(=O)N[C@@H](CC(N)=O)C(=O)N[C@H](C(=O)NCC(=O)N[C@@H](CO)C(=O)N[C@@H](CCN)C(=O)N[C@H](C(=O)N[C@@H](Cc1ccc(O)cc1)C(N)=O)[C@@H](C)O)C(C)C)[C@@H](C)O [Peptide 124, K(γE-γE-C18diacid)[CNTATC]ATQRLANFLVHSS(Aib)NFPAILSPTNVGS(Dab)TY-amide] (H-K([γGlu-γGlu-C18 diacid])CNTATCATQRLANFLVHSS[Aib]NFPAILSPTNVGS[Dab]TY-NH2; disulfide 2-7; N-terminus assumed)	6630	6	1130
